# Experimental data taken from patent US20240158369A1, “PYRIMIDINE COMPOUND AS WEE-1 INHIBITOR” (WIGEN BIOMEDICINE TECHNOLOGY (SHANGHAI) CO., LTD., priority 2021, published 2024).
# pIC50: −log10 of the molar value.
# Assays:
# MIA PaCa-2 cells [1] = test: In-vitro anti-proliferative activity in combination with gemcitabine on MIA PaCa-2 cells; format: cell-based; details: 72 h
# Experimental: (§1) MIA PaCa-2 cells were seeded on a 384-well plate at 3000 cells/well, and 20 nM or 200 nM gemcitabine (GMC) was added. After overnight adherence culture, DMSO or the compounds serially 1:5-diluted from 100 nM were added. The viability was assessed 72 h after dosing by measuring the intracellular ATP content. The inhibition percentage of viable cells by the compounds was calculated by comparing with the DMSO group, and the IC50 value was calculated.
# MIA PaCa-2 cells [2] = test: In-vitro anti-proliferative activity on MIA PaCa-2 cells (intracellular ATP content, 72 h); format: cell-based; details: Homo sapiens, compound alone, read-out: IC50 (nM) antiproliferative activity against MIA PaCa-2 cells
# Experimental: as §1, with “cells/well.” for “cells/well, and 20 nM or 200 nM gemcitabine (GMC) was added.”, “5 μM” for “100 nM”
# [3] = target: recombinant protein Wee-1 (Homo sapiens (Human), UniProt P30291); test: HTRF assay for inhibiting enzymatic activity of recombinant protein Wee-1; format: biochemical; details: compounds up to 200 nM, read-out: (IC50) Inhibitory activity against recombinant protein Wee-1
# Experimental: The inhibitory effect of the compounds on the enzyme activity of recombinant protein Wee-1 was determined by HTRF. The procedures are as follows:
# After DMSO or serially diluted compounds (up to 200 nM, 1:5 diluted) and recombinant proteins were co-incubated in a kinase buffer at 37° C. for 30 min before Fluorescein-PolyGAT and ATP were added, and the reaction was initiated by addition of a substrate. After incubation at room temperature for 90 min, an antibody and a detection solution were added, and after further incubation at room temperature for 60 min, fluorescence values were detected (excitation wavelength: 340 nm, emission wavelengths: 495 and 520 nm). The 520 nm/495 nm fluorescence intensity ratio value was calculated, and compared with that of the DMSO group, and then the inhibition percentages and IC50 values of the compounds were calculated.
# [4] = test system: HT29 subcutaneous xenograft tumor; test: Mouse HT29 subcutaneous xenograft tumor model (Example 164), alone or with 15 mg/kg gemcitabine; format: in vivo
# Experimental: (§2) HT29 is a colon cancer cell. Each nude mouse was grafted subcutaneously with 5×10^6HT29 cells. When the tumor grew to 100-200 mm^3, the compound was administered orally once a day alone or in combination with 15 mg/kg of gemcitabine injected intraperitoneally once a week, and the tumor volume was measured twice a week and at the end of treatment. Tumor growth inhibition of the compound was calculated according to the following equation: tumor growth inhibition (TGI)=1−(tumor volume on day 20 in treatment group−tumor volume on day 1 in treatment group)/(tumor volume on day 20 in vehicle control group−tumor volume on day 1 in treatment group).
# [5] = test system: HT29 subcutaneous xenograft tumor; test: Mouse HT29 subcutaneous xenograft tumor model (Example 165), with 30 mg/kg gemcitabine; format: in vivo
# Experimental: as §2, with “day” for “day alone or”, “30” for “15”
# [6] = with 20 nM gemcitabine, read-out: in combination with 20 nM GMC IC50
# [7] = with 200 nM gemcitabine, read-out: in combination with 200 nM GMC IC50
# [8] = 30 mg/kg orally once a day in combination with 15 mg/kg of gemcitabine ip once a week, day 1
# [9] = 30 mg/kg orally once a day in combination with 15 mg/kg of gemcitabine ip once a week, day 20
# [10] = monotherapy, 30 mg/kg orally once a day, nude mouse HT29, day 1
# [11] = monotherapy, 30 mg/kg orally once a day, nude mouse HT29, day 20
# [12] = 30 mg/kg orally once a day in combination with 30 mg/kg of gemcitabine ip once a week
# [13] = 30 mg/kg orally once a day in combination with 30 mg/kg of gemcitabine ip once a week, day 20
# [14] = gemcitabine alone 15 mg/kg intraperitoneally once a week, day 20
# Chain of recombinant protein Wee-1 (P30291 whole entry): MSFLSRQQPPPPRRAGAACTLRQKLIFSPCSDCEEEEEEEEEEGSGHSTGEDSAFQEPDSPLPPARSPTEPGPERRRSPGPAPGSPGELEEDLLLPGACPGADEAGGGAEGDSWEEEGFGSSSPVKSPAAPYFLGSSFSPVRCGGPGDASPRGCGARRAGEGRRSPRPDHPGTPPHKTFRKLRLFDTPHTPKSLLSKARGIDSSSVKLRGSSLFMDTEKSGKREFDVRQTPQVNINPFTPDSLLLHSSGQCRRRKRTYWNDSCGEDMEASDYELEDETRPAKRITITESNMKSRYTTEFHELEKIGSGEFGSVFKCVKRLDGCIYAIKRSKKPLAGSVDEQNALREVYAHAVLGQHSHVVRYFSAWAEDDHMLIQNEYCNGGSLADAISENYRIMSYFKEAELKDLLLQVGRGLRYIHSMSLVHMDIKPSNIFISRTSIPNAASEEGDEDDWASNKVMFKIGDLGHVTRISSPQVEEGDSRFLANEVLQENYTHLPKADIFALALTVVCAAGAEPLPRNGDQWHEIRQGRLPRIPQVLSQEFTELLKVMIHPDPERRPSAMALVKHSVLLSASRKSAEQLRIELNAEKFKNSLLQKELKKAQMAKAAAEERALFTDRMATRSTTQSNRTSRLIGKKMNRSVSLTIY
Compound,pIC50 (MIA PaCa-2 cells [1]; [6]),pIC50 [3],also measured
CN1CCc2ccc(Nc3ncc(C#N)c(Nc4cccc(N=S(C)(C)=O)n4)n3)cc2C1 [Compound 1],8.34,≥ 8.00,IC50 (MIA PaCa-2 cells [2]): 735 nM
CN1CCc2ccc(Nc3ncc(C(F)(F)F)c(Nc4cccc(N=S(C)(C)=O)n4)n3)cc2C1 [Compound 2],7.52,< 7.30,IC50 (MIA PaCa-2 cells [2]): 398 nM
CN1CCc2ccc(Nc3ncc(C4CC4)c(Nc4cccc(N=S(C)(C)=O)n4)n3)cc2C1 [Compound 3],–,< 7.30,pIC50 (MIA PaCa-2 cells [1]; [7]): < 7.00; IC50 (MIA PaCa-2 cells [2]): 879 nM
CN1CCc2ccc(Nc3ncc(P(C)(C)=O)c(Nc4cccc(N=S(C)(C)=O)n4)n3)cc2C1 [Compound 4],< 7.00,< 7.30,IC50 (MIA PaCa-2 cells [2]): > 5000 nM
CCc1cc(Nc2ncc(C#N)c(Nc3cccc(N=S(C)(C)=O)n3)n2)cc2c1CCN(C)C2 [Compound 13],–,≥ 8.00,"Tumor volume on day 1 of treatment (mm^3) [4, 8]: 102 mm^3; TGI [4, 9]: 109%; Tumor volume on day 20 of treatment (mm^3) [4, 9]: 14 mm^3; Tumor volume on day 1 of treatment (mm^3) [4, 10]: 102 mm^3; TGI [4, 11]: 97%; Tumor volume on day 20 of treatment (mm^3) [4, 11]: 129 mm^3; pIC50 (MIA PaCa-2 cells [1]; [7]): 9.00"
CC(C)c1cc(Nc2ncc(C#N)c(Nc3cccc(N=S(C)(C)=O)n3)n2)cc2c1CCN(C)C2 [Compound 14],9.00,≥ 8.00,"Tumor volume on day 20 of treatment (mm^3) [5, 12]: 38 mm^3; TGI [5, 13]: 106%"
CN1CCc2c(cc(Nc3ncc(C#N)c(Nc4cccc(N=S(C)(C)=O)n4)n3)cc2C2CC2)C1 [Compound 16],–,≥ 8.00,"Tumor volume on day 1 of treatment (mm^3) [4, 8]: 102 mm^3; TGI [4, 9]: 104%; Tumor volume on day 20 of treatment (mm^3) [4, 9]: 58 mm^3; Tumor volume on day 1 of treatment (mm^3) [4, 10]: 102 mm^3; TGI [4, 11]: 79%; Tumor volume on day 20 of treatment (mm^3) [4, 11]: 307 mm^3; pIC50 (MIA PaCa-2 cells [1]; [7]): 9.00"
CN1CCc2c(cc(Nc3ncc(C#N)c(Nc4cccc(N=S(C)(C)=O)n4)n3)cc2C2CCCC2)C1 [Compound 18],8.68,≥ 8.00,"Tumor volume on day 20 of treatment (mm^3) [5, 12]: 218 mm^3; TGI [5, 13]: 92%"
CC(C)Cc1cc(Nc2ncc(C#N)c(Nc3cccc(N=S(C)(C)=O)n3)n2)cc2c1CCN(C)C2 [Compound 87],8.74,–,"Tumor volume on day 20 of treatment (mm^3) [5, 12]: 395 mm^3; TGI [5, 13]: 79%"
CN1CCc2c(cc(Nc3ncc(C#N)c(Nc4cccc(N=S(C)(C)=O)n4)n3)cc2C2CCC2)C1 [Compound 97],8.80,≥ 8.00,"Tumor volume on day 20 of treatment (mm^3) [5, 12]: 278 mm^3; TGI [5, 13]: 88%"
CN1CCc2c(cc(Nc3ncc(C#N)c(Nc4cccc(N=S(C)(C)=O)n4)n3)cc2C2(C)CC2)C1 [Compound 101],8.36,≥ 8.00,"Tumor volume on day 20 of treatment (mm^3) [5, 12]: 95 mm^3; TGI [5, 13]: 102%"
CN1CCc2c(cc(Nc3ncc(C#N)c(Nc4cccc(N=S(C)(C)=O)n4)n3)cc2C2CCOCC2)C1 [Compound 117],8.82,≥ 8.00,"Tumor volume on day 20 of treatment (mm^3) [5, 12]: 283 mm^3; TGI [5, 13]: 87%"
COCc1cc(Nc2ncc(C#N)c(Nc3cccc(N=S(C)(C)=O)n3)n2)cc2c1CCN(C)C2 [Compound 124],8.57,≥ 8.00,–
C[C@@H]1CN(c2cc(Nc3ncc(C#N)c(Nc4cccc(N=S(C)(C)=O)n4)n3)cc3c2CCN(C)C3)C[C@H](C)O1 [Compound 127],8.09,≥ 8.00,–
COCCCc1cc(Nc2ncc(C#N)c(Nc3cccc(N=S(C)(C)=O)n3)n2)cc2c1CCN(C)C2 [Compound 128],8.60,≥ 8.00,"Tumor volume on day 20 of treatment (mm^3) [5, 12]: 284 mm^3; TGI [5, 13]: 87%"
COC/C=C/c1cc(Nc2ncc(C#N)c(Nc3cccc(N=S(C)(C)=O)n3)n2)cc2c1CCN(C)C2 [Compound 129],8.38,≥ 8.00,–
CN(C)Cc1cc(Nc2ncc(C#N)c(Nc3cccc(N=S(C)(C)=O)n3)n2)cc2c1CCN(C)C2 [Compound 130],8.00,≥ 8.00,–
CN1CCc2c(CO)cc(Nc3ncc(C#N)c(Nc4cccc(N=S(C)(C)=O)n4)n3)cc2C1 [Compound 131],8.17,≥ 8.00,–
CCN1CCc2c(cc(Nc3ncc(C#N)c(Nc4cccc(N=S(C)(C)=O)n4)n3)cc2C2CC2)C1 [Compound 137],8.48,≥ 8.00,"Tumor volume on day 1 of treatment (mm^3) [4, 8]: 102 mm^3; TGI [4, 9]: 100%; Tumor volume on day 20 of treatment (mm^3) [4, 9]: 97 mm^3; Tumor volume on day 1 of treatment (mm^3) [4, 10]: 102 mm^3; TGI [4, 11]: 51%; Tumor volume on day 20 of treatment (mm^3) [4, 11]: 573 mm^3"
CN1CCc2ccc(Nc3nccc(Nc4cccc(N=S(C)(C)=O)n4)n3)cc2C1 [Compound 145],< 7.00,< 7.30,–
CS(C)(=O)=Nc1cccc(Nc2nc(Nc3ccc4c(c3)CCC(N3CCCC3)CC4)ncc2C#N)n1 (centres unmarked) [Compound 146],8.32,≥ 8.00,–
COc1cc2c(cc1Nc1ncc(C#N)c(Nc3cccc(N=S(C)(C)=O)n3)n1)CN(C)CC2 [Compound 147],7.30,≥ 8.00,–
CS(C)(=O)=Nc1cccc(Nc2nc(Nc3cc4c(c(C5CC5)c3)CCNC4)ncc2C#N)n1 [Compound 148],8.68,≥ 8.00,–
CN1CCc2c(cc(Nc3ncc(C#N)c(Nc4ccccc4N=S(C)(C)=O)n3)cc2C2CC2)C1 [Compound 150],8.46,7.30 to 8.00,–
CN1CCc2c(cc(Nc3ncc(C#N)c(Nc4cccc(N=S(C)(C)=O)n4)n3)cc2C2=CCCCC2)C1 [Compound 152],8.42,≥ 8.00,–
Cc1cc(Nc2ncc(C#N)c(Nc3cccc(N=S(C)(C)=O)n3)n2)ccc1N1CCN(C)CC1 [Compound 153],8.46,≥ 8.00,–
Cc1cc(Nc2ncc(C#N)c(Nc3cccc(N=S(C)(C)=O)n3)n2)cc(C)c1N1CCN(C)CC1 [Compound 154],8.62,≥ 8.00,–
CN1CCN(c2ccc(Nc3ncc(C#N)c(Nc4cccc(N=S(C)(C)=O)n4)n3)cc2C2CC2)CC1 [Compound 155],8.27,≥ 8.00,–
Cc1cc(Nc2ncc(C#N)c(Nc3cccc(N=S(C)(C)=O)n3)n2)cc(C2CC2)c1N1CCN(C)CC1 [Compound 156],8.22,≥ 8.00,–
"Nc1ccn([C@@H]2O[C@H](CO)[C@@H](O)C2(F)F)c(=O)n1 [Gemcitabine, gemcitabine, reference compound]",–,–,"inhibition in vivo at 30 mg/kg ([5]; Mus musculus, HT-29, ip, 480 h, gemcitabine alone 30 mg/kg intraperitoneally once a week, day 20, read-out: TGI): 60%; Tumor volume on day 20 of treatment (mm^3) ([5]; gemcitabine alone 30 mg/kg intraperitoneally once a week): 653 mm^3; Tumor volume on day 1 of treatment (mm^3) ([4]; gemcitabine alone 15 mg/kg intraperitoneally once a week, day 1): 102 mm^3; TGI [4, 14]: 54%; Tumor volume on day 20 of treatment (mm^3) [4, 14]: 550 mm^3"
